Test results reported in article PMC8213057, “Targeting ALK2: An Open Science Approach to Developing Therapeutics for the Treatment of Diffuse Intrinsic Pontine Glioma” (Journal of Medicinal Chemistry, 2020).

Tests used:
[1] = biological target: PKAcg (Homo sapiens, UniProt P22612); test: biochemical; details: read-out: % enzyme activity, 1 μM; Run 1, Run 2
[2] = biological target: T1, NEK1 (Homo sapiens, UniProt Q96PY6); test: biochemical; details: read-out: % enzyme activity, 1 μM; Run 1, Run 2
T1 sequence (Q96PY6 1-1258): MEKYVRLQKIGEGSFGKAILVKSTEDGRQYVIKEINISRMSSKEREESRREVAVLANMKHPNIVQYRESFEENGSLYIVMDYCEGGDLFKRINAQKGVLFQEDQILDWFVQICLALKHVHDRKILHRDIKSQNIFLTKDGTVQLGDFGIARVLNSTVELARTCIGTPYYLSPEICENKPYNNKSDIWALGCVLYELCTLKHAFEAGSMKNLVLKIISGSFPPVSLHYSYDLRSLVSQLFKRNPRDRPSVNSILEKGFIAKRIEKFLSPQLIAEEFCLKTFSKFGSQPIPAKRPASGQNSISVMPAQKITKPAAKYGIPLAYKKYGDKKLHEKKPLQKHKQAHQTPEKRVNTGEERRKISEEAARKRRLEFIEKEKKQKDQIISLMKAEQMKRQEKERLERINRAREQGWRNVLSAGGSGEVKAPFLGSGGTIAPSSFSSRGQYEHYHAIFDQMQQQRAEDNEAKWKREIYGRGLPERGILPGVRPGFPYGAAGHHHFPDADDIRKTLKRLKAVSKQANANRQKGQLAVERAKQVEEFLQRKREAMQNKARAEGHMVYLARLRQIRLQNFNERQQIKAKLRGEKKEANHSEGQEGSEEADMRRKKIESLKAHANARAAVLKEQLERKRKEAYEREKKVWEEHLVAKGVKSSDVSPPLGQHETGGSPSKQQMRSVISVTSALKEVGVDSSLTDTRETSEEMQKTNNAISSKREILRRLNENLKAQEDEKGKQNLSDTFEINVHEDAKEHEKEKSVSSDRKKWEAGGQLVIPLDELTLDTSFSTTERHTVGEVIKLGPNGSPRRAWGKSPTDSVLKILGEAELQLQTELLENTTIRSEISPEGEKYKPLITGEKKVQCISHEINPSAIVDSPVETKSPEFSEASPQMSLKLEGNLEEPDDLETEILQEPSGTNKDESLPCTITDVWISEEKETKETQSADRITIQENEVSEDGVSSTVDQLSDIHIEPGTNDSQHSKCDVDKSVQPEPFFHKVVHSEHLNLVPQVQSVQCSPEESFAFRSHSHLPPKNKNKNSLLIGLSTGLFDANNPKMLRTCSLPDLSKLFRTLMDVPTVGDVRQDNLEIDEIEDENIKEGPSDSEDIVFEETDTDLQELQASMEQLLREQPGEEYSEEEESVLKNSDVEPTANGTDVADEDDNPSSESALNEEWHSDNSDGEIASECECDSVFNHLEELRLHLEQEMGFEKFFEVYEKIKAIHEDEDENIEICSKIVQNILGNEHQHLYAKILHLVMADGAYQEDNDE

[3] = biological target: T2, TXK (Homo sapiens, UniProt P42681); test: biochemical; details: read-out: % enzyme activity, 1 μM; Run 1, Run 2
T2 sequence (P42681 1-527): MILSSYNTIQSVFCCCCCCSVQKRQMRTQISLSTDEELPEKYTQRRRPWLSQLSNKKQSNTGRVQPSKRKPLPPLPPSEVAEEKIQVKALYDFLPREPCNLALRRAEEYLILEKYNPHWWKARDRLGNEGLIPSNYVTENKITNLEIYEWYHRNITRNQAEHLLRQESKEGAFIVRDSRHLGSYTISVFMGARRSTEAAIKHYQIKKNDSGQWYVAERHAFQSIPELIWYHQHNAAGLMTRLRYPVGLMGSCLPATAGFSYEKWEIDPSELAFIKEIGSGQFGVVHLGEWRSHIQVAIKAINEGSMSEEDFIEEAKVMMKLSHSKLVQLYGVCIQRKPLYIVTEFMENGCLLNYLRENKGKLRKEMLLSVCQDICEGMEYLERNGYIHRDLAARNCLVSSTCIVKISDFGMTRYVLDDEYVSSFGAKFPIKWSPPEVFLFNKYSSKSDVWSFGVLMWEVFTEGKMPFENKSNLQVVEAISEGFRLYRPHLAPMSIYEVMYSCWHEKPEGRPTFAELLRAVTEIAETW

[4] = biological target: CDK2/cyclin E (Homo sapiens, UniProt P24941); test: biochemical; details: read-out: % enzyme activity, 1 μM; Run 1, Run 2
[5] = biological target: TRKC (Homo sapiens, UniProt Q16288); test: biochemical; details: read-out: % enzyme activity, 1 μM; Run 1, Run 2
[6] = biological target: CDK8/cyclin C (Homo sapiens, UniProt P49336); test: biochemical; details: read-out: % enzyme activity, 1 μM; Run 1, Run 2
[7] = biological target: LOK/STK10 (Homo sapiens, UniProt O94804); test: biochemical; details: read-out: % enzyme activity, 1 μM; Run 1, Run 2
[8] = biological target: T3, IRAK4 (Homo sapiens, UniProt Q9NWZ3); details: 1 μM; Run 1, Run 2
T3 sequence (Q9NWZ3 1-460): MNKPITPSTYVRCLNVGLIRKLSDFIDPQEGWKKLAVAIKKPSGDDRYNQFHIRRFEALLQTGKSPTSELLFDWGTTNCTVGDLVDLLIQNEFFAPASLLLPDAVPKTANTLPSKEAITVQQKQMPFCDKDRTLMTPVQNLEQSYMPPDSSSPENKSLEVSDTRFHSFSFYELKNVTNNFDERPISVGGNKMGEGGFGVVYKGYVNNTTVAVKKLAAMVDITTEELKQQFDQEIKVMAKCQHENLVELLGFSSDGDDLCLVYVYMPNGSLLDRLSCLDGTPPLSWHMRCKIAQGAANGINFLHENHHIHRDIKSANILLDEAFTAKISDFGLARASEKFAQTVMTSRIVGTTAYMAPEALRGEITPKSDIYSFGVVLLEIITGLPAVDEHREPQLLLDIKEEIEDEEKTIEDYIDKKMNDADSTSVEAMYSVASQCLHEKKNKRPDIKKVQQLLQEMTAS

Chain of LOK/STK10 (O94804 whole entry): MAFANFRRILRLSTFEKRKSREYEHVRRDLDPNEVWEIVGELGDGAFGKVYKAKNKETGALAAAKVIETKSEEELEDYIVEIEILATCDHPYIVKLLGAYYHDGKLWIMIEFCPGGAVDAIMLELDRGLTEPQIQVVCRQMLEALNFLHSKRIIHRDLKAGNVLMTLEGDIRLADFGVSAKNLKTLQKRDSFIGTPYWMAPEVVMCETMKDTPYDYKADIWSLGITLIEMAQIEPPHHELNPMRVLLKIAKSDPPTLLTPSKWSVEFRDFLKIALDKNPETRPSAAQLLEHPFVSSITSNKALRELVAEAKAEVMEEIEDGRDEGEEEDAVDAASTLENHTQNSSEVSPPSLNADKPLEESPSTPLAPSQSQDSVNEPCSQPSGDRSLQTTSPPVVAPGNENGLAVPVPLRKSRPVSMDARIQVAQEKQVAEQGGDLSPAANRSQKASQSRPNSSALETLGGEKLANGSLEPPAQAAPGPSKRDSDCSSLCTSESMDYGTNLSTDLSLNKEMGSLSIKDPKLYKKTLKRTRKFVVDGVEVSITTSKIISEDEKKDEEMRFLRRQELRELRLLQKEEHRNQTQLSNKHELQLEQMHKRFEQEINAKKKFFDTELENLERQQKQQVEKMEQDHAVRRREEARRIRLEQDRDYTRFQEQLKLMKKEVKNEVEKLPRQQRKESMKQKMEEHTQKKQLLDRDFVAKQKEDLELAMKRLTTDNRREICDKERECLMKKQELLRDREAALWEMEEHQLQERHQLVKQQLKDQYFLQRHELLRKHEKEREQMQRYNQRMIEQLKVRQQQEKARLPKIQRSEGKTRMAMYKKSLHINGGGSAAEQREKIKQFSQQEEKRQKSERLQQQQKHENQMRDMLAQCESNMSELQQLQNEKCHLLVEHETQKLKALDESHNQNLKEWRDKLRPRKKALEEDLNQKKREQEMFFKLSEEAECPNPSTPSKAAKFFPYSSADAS
Chain of CDK8/cyclin C (P49336 whole entry): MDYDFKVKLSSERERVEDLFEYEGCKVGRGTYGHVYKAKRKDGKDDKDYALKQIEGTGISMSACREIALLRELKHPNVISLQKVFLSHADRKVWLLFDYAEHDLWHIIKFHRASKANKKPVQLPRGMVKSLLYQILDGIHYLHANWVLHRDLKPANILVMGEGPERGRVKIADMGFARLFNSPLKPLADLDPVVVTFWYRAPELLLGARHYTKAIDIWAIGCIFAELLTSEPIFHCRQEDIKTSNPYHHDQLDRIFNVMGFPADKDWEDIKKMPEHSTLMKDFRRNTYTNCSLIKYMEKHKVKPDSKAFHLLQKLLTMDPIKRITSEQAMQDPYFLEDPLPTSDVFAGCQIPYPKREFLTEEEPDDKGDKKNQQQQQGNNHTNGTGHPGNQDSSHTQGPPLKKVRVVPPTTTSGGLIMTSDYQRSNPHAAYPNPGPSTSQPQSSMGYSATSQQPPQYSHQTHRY
Chain of CDK8/cyclin C (P24863 whole entry partner): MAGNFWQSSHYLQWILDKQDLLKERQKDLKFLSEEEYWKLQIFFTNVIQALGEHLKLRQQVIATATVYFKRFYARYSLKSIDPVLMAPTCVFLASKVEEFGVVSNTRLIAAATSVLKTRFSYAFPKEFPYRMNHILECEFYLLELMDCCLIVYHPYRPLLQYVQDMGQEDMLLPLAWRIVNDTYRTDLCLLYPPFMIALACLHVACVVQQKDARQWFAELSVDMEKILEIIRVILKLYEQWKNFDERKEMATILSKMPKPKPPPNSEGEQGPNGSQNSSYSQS
Chain of PKAcg (P22612 whole entry): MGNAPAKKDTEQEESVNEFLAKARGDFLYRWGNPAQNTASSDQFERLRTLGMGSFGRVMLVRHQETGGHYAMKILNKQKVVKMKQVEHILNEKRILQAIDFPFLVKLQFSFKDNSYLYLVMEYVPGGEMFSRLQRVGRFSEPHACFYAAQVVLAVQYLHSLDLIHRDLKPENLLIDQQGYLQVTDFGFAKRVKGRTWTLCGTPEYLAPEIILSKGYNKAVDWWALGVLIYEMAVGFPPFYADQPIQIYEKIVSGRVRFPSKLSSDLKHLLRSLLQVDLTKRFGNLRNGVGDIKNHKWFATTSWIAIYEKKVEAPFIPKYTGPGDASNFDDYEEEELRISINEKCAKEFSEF
Chain of TRKC (Q16288 32-839): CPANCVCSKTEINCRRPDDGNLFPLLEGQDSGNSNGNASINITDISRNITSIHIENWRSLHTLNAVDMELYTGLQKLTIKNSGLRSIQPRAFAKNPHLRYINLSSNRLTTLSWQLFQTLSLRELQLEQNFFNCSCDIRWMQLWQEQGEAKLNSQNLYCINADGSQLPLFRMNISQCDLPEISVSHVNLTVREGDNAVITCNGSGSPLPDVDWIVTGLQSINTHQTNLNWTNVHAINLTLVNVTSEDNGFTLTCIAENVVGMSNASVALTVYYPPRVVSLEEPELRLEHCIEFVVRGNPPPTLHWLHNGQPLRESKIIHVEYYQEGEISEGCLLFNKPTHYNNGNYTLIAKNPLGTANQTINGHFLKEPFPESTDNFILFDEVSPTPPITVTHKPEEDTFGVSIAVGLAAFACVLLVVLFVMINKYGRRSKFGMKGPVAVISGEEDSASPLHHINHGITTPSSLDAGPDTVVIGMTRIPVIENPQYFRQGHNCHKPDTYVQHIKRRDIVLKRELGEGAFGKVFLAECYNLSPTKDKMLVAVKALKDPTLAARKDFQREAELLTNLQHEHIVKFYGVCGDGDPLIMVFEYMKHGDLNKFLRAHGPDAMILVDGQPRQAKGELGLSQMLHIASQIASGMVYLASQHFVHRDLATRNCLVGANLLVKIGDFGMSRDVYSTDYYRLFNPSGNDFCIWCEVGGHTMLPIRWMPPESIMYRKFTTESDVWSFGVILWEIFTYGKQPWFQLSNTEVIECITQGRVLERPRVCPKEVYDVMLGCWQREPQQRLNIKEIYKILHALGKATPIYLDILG

Row | Structure (SMILES) | remaining activity at 1 µM [1] [%] | remaining activity at 1 µM [2] [%] | remaining activity at 1 µM [3] [%] | remaining activity at 1 µM [4] [%] | remaining activity at 1 µM [5] [%] | remaining activity at 1 µM [6] [%] | remaining activity at 1 µM [7] [%] | % enzyme activity [8] [%]
1 | COc1cc(-c2cncc(-c3ccc(N4CCN(C)CC4)cc3)c2C)cc(F)c1C(N)=O [Compound 26a, 2-Fluoro-6-methoxy-4-(4-methyl-5-(4-(4-methylpiperazin-1-yl)phenyl)pyridin-3-yl)benzamide] | 94.1 | 87.6 | 101 | 105 | 103 | 84.6 | 51.8 | 82.71
2 | COc1cc(-c2cncc(-c3ccc(N4C[C@@H](C)N(C)[C@@H](C)C4)cc3)c2C)cc(F)c1C(N)=O [Compound 26c, 2-Fluoro-6-methoxy-4-(4-methyl-5-(4-((3R,5S)-3,4,5-trimethylpiperazin-1-yl)phenyl)pyridin-3-yl)benzamide] | 101 | 88.1 | 98.2 | 102 | 99 | 93.1 | 68.7 | 88.61
